Laboratory results taken from publication PMC11314621, “Cheminformatics-Guided Exploration of Synthetic Marine Natural Product-Inspired Brominated Indole-3-Glyoxylamides and Their Potentials for Drug Discovery” (Molecules, 2024).
Like-named read-outs stand apart in the source and are kept apart here.

Tests used:
protein kinase C = settings: ref [15]; cited from earlier work
[1] = target: T1, α-chymotrypsin from bovine pancreas (Bos taurus, UniProt P00766); test: Serine protease assay, chymotrypsin; assay type: biochemical; settings: for remaining activity at 10 µM / % enzyme activity @ 10 µM, chymotrypsin: remaining enzyme activity; for IC50: IC50 ± standard deviation
T1 construct: α-chymotrypsin from bovine pancreas (Sigma, C4129); purchased Sigma C4129; host or cells: bovine pancreas
Protocol: (§1) Serine protease-inhibitory activities for 25–56 were determined in 96 well plates. Each inhibitor was initially tested in duplicate against elastase and chymotrypsin at 10 µM. […] Assays for the inhibition of elastase were undertaken using high-purity porcine pancreatic elastase (Sigma, Melbourne, Victoria, Australia, E0258) in an assay buffer of 50 mM Tris-HCl (pH 8.0) at room temperature. Dilutions of each inhibitor (originally resuspended in DMSO) were prepared in triplicate and then preincubated with 375 ng of elastase for 15 min at room temperature in a total reaction volume of 85 µL. Following this preincubation, 15 µL of 2 mM N-succinyl-Ala-Ala-Ala-p-nitroanilide (Sigma, S4760) in assay buffer was added to each well and kinetic measurement of absorbance at 405 nm (Tecan Spark Plate Reader, Zürich, Switzerland) was undertaken for 30 min. […] Dilutions of each inhibitor were prepared in triplicate and preincubated with 5 µg of chymotrypsin for 10 min at 37 °C in a total reaction volume of 75 µL. After preincubation, 25 µL of 2 mM N-succinyl-Gly-Gly-Phe-p-nitroanilide (Sigma, S1899) was added to each well and kinetic measurement of absorbance at 405 nm was undertaken for 30 min. Inhibitory activity was determined by comparison of the slope of the reaction curve for multiple dilutions of the inhibitor to that of an equivalent solvent control and expressed as IC50 ± standard deviation.

[2] = target: T2, porcine pancreatic elastase (Sus scrofa, UniProt P00772); test: Serine protease assay, elastase; assay type: biochemical; settings: remaining enzyme activity
T2 construct: high-purity porcine pancreatic elastase (Sigma, Melbourne, Victoria, Australia, E0258); purchased Sigma E0258
Protocol: as §1

α-synuclein = target: T3, α-synuclein (Homo sapiens, UniProt P37840); test: In vitro α-synuclein affinity MS-binding assay; settings: 3 h incubation, 5:1 molar ratio, (+)-HRESIMS
T3 construct: α-synuclein protein solutions (10 μM) were prepared in 10 mM ammonium acetate
Protocol: The synthetic indoles were incubated with α-syn for 3 h at a 5:1 molar ratio, after which a (+)- mode high-resolution MS spectrum was acquired.
α-synuclein protein solutions (10 μM) were prepared in 10 mM ammonium acetate. Synthetic IGAs 25, 26, 34, 41, 45, 46, 51, and 52 (100 μM) were dissolved in 100% MeOH and incubated with α-syn at room temperature for 3 h. Protein-ligand interactions were analysed using (+) HRESIMS calibrated with sodium trifluoroacetate (0.1 mg/mL) with the following parameters: nebuliser 2.0 Bar; dry gas 7 L/min; dry temp 150 °C; funnel I RF 400 Vpp; end plate offset 500 V; capillary 4500 V; ISCID 0.0 ev; ion energy 4.0 eV; transfer time 100 μs; multipole RF 800 Vpp; collision RF 1200 Vpp; prepulse storage 10 μs; spectra rate: 2 × 100 Hz. The resulting spectra were analysed for additional peaks representing complexes formed between α-syn and active compounds.

SARS-CoV-2 3CLpro [3] = target: T4, SARS-CoV-2 3CLpro (Severe acute respiratory syndrome coronavirus 2, UniProt P0DTD1); test: biochemical
T4 construct: Each well contained 25 nM of SARS-CoV-2 3CL^Pro and eCFP-Venus biosensor (500 nM)

P. falciparum Dd2 = test: Antiplasmodial image-based assay, Dd2 strain; assay type: cell-based, Plasmodium falciparum; settings: chloroquine-resistant P. falciparum strain Dd2
Protocol: (§2) An anti-plasmodial imaging assay reported by Duffy and Avery was used to examine the antiplasmodial activities of synthetic indoles 25, 26, 36, 37, 38, 40, 41, 43, 45, 46, 47, 48, 50 and 51. All compounds were diluted to […] in DMSO and tested at three increasing concentrations from 0.4 nM–40 μM per log dose in a 16-point CRC ([…]) parasite strains of Plasmodium falciparum. […] Normalised percent inhibition data was obtained using in-plate positive (4 μM DHA) and negative (0.4% DMSO) controls, which were then used to calculate IC50 values. Compounds were incubated in CellCarrier-384 well imaging plates in the presence of 2% parasitemia (3D7 or Dd2) at 0.3% hematocrit in a total assay volume of 50 μL for 72 h at 37 °C, 5% O2, 5% CO2 and 90% N2. After incubation, plates were stained with 4′,6-diamidino-2-phenylindole (DAPI) and imaged using an Opera Phenix high-content imaging system (Revvity, Mulgrave, Victoria, Australia). Images were analysed using Harmony (Revvity) software (version 3), while percent parasite inhibition was calculated using the minimum (0.4% DMSO) and (DHA). IC50 values were determined by plotting % inhibition against log dose and analysed using nonlinear regression and sigmoidal dose-response using GraphPad Prism version 6.

HEK293 cells = test: HEK293 cell cytotoxicity; assay type: cell-based; settings: 60 µM, human embryonic kidney cell line
P. falciparum 3D7 = test: Antiplasmodial image-based assay, 3D7 strain; assay type: cell-based, Plasmodium falciparum; settings: chloroquine-sensitive P. falciparum strain 3D7
Protocol: as §2

prion = settings: cited from earlier work
SARS-CoV-2 3CLpro [4] = target: T4, SARS-CoV-2 3CLpro; settings: cited from earlier work; for inhibition of SARS-CoV-2 3CLPro: ref [33]
HIV-1 = test system: HIV-1; set-up: method as in PMID 34095843, PMID 30940396; settings: ref [34],[35]; cited from earlier work
elastase = test system: elastase; set-up: method as in PMID 37609780; settings: ref [36]; cited from earlier work

T2 sequence (P00772 27-266): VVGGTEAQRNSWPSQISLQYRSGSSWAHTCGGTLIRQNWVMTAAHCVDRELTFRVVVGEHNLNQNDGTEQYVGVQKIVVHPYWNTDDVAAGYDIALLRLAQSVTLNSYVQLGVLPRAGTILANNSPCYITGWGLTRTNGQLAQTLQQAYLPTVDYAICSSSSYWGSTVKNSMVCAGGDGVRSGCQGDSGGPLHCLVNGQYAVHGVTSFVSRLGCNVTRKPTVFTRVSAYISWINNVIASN

Compound: CO[C@@H]1[C@H](NC(=O)C(=O)c2c[nH]c3ccccc23)C[C@H]2O[C@]1(C)n1c3ccccc3c3c4c(c5c6ccccc6n2c5c31)C(=O)NC4 [Compound 13, 13G-291]
- protein kinase C inhibition (protein kinase C): only weak inhibition

Compound: O=C(N[C@@H](CSSC[C@H](NC(=O)C(=O)c1c[nH]c2cc(Br)ccc12)C(=O)O)C(=O)O)C(=O)c1c[nH]c2cc(Br)ccc12 [Compound 34, 6-bromoindolyl-3-glyoxyl-L-cystine]
- remaining activity at 10 µM [1]: 93.1%
- remaining activity at 10 µM [2]: 93.5%
- binding with α-syn (protein-ligand complexes in MS) (α-synuclein): α-syn binding displayed
- inhibition at 20 µM (SARS-CoV-2 3CLpro [3]; 20 µM, no DTT, read-out: % inhibition @ 20 µM, No DTT): 86.1%
- inhibition at 20 µM (SARS-CoV-2 3CLpro [3]; 20 µM, with DTT (4 mM), read-out: % inhibition @ 20 µM, DTT): 4.6%
- IC50 (SARS-CoV-2 3CLpro [3]; no DTT): 6.4 µM

Compound: O=C(N[C@@H](Cc1c[nH]c2ccccc12)C(=O)O)C(=O)c1c[nH]c2ccc(Br)cc12 [Compound 45, 5-bromoindolyl-3-glyoxyl-L-tryptophan]
- % Inhibition @ 60 µM, Dd2 (P. falciparum Dd2; 60 µM, 72 h): 56.0%
- % Inhibition @ 60 µM, HEK293 (HEK293 cells): 24.0%
- % enzyme activity @ 10 µM, chymotrypsin [1]: 69.2%
- IC50 [1]: 16.3 µM
- % Inhibition @ 60 µM, 3D7 (P. falciparum 3D7; 60 µM, 72 h): 73.0%
- % enzyme activity @ 10 µM, elastase [2]: 94.0%
- binding with α-syn (protein-ligand complexes in MS) (α-synuclein): α-syn binding displayed
- % inhibition @ 20 µM, No DTT (SARS-CoV-2 3CLpro [3]; 20 µM, no DTT): 21.8%
- % inhibition @ 20 µM, DTT (SARS-CoV-2 3CLpro [3]; 20 µM, with DTT (4 mM)): 3.7%

Compound: O=C(N[C@H](Cc1c[nH]c2ccccc12)C(=O)O)C(=O)c1c[nH]c2ccc(Br)cc12 [Compound 46, 5-bromoindolyl-3-glyoxyl-D-tryptophan]
- % Inhibition @ 60 µM, Dd2 (P. falciparum Dd2; 60 µM, 72 h): 97.5%
- inhibition at 60 µM (P. falciparum Dd2; Plasmodium falciparum, DD2, 72 h, 60 µM, 72 h): ~100%
- IC50 (P. falciparum Dd2; Plasmodium falciparum): 8.2 µM
- inhibition at 60 µM (HEK293 cells; HEK293): 21.5%
- remaining activity at 10 µM [1]: 47.7%
- IC50 [1]: 6.3 µM
- inhibition at 60 µM (P. falciparum 3D7; Plasmodium falciparum, 3D7, 72 h, 60 µM, 72 h): ~100%
- IC50 (P. falciparum 3D7; Plasmodium falciparum): 7.4 µM
- remaining activity at 10 µM [2]: 90.9%
- binding with α-syn (protein-ligand complexes in MS) (α-synuclein): α-syn binding displayed
- inhibition at 20 µM (SARS-CoV-2 3CLpro [3]; read-out: % inhibition @ 20 µM, DTT): 2.5%
- inhibition at 20 µM (SARS-CoV-2 3CLpro [3]; read-out: % inhibition @ 20 µM, No DTT): 27.4%

Compound: O=C(N[C@@H](Cc1ccc(O)cc1)C(=O)O)C(=O)c1c[nH]c2cc(Br)ccc12 [Compound 51, 6-bromoindolyl-3-glyoxyl-L-tyrosine]
- % Inhibition @ 60 µM, Dd2 (P. falciparum Dd2; 60 µM, 72 h): 56.0%
- % Inhibition @ 60 µM, HEK293 (HEK293 cells): 21.5%
- % enzyme activity @ 10 µM, chymotrypsin [1]: 91.8%
- % Inhibition @ 60 µM, 3D7 (P. falciparum 3D7; 60 µM, 72 h): 58.0%
- % enzyme activity @ 10 µM, elastase [2]: 100.3%
- binding with α-syn (protein-ligand complexes in MS) (α-synuclein): α-syn binding displayed
- % inhibition @ 20 µM, No DTT (SARS-CoV-2 3CLpro [3]; 20 µM, no DTT): 23.3%
- % inhibition @ 20 µM, DTT (SARS-CoV-2 3CLpro [3]; 20 µM, with DTT (4 mM)): 6.9%

Compound: O=C(N[C@H](Cc1ccc(O)cc1)C(=O)O)C(=O)c1c[nH]c2cc(Br)ccc12 [Compound 52, 6-bromoindolyl-3-glyoxyl-D-tyrosine]
- % enzyme activity @ 10 µM, chymotrypsin [1]: 97.2%
- % enzyme activity @ 10 µM, elastase [2]: 97.1%
- binding with α-syn (protein-ligand complexes in MS) (α-synuclein): α-syn binding displayed
- % inhibition @ 20 µM, No DTT (SARS-CoV-2 3CLpro [3]; 20 µM, no DTT): 14.0%
- % inhibition @ 20 µM, DTT (SARS-CoV-2 3CLpro [3]; 20 µM, with DTT (4 mM)): 4.9%

Compound: COc1ccc(C/C(=N\O)C(=O)NCCc2cc(Br)c(OCCCN(C)C)c(Br)c2)cc1Br [Compound 57, aplysamine-2]
- anti-prion activity in a yeast-based assay (prion; ref [25]): micromolar anti-prion activities

Compound: O=C[C@H](C[C@@H]1CCNC1=O)NC(=O)[C@H](CC1CCCCC1)NC(=O)c1cc2ccccc2[nH]1 [Compound 62]
- inhibition of SARS-CoV-2 3CLPro (SARS-CoV-2 3CLpro [4]): nanomolar inhibition

Compound: O=C[C@H](C[C@@H]1CCNC1=O)NC(=O)[C@H](Cc1cccc(F)c1)NC(=O)c1cc2ccccc2[nH]1 [Compound 63]
- inhibition of SARS-CoV-2 3CLPro (SARS-CoV-2 3CLpro [4]): nanomolar inhibition

Compound: O=C(C(=O)N1CCN(C(=O)c2ccccc2)CC1)c1c[nH]c2ccccc12 [Compound 64]
- inhibition of HIV-1 (HIV-1): nanomolar inhibition

Compound: C[C@@H]1CN(C(=O)c2ccccc2)CCN1C(=O)C(=O)c1c[nH]c2ccccc12 [Compound 65]
- inhibition of HIV-1 (HIV-1): nanomolar inhibition

Compound: CC[C@H](C)[C@@H]1NC(=O)[C@H](CC(C)C)NC(=O)[C@@H](N2C(=O)N[C@@H](C)C2=O)CNC(=O)[C@H](CS(=O)(=O)O)NC(=O)/C=C/c2csc(n2)[C@H](Cc2ccc(O)cc2)NC(=O)C1=O [Compound 66, cyclotheonellazole D]
- elastase inhibition (elastase): nanomolar potent inhibitor
- change of SARS-CoV-2 3CLPro inhibition in the presence of DTT (SARS-CoV-2 3CLpro [4]; DTT (4 mM) versus no DTT, ref [36]): more than eightfold reduction

Compound: purealidine Q
- anti-prion activity in a yeast-based assay (prion): micromolar anti-prion activities
